Data on 5 compounds can be found in ChEMBL document CHEMBL1139640, “Water soluble prodrug of a COX-2 selective inhibitor suitable for intravenous administration in models of cerebral ischemia” (Bioorg Med Chem Lett, 2005).

Test [1] relates to Rattus norvegicus. Briefly: Plasma concentration of compound 1 in Sprague-Dawley rats upon 2 mg/kg iv dose of prodrug after 30 minutes. It counts as functional, organism-based. Also noted: dose 2 mg/kg.
Test [2] has as its target Prostaglandin G/H synthase 1 (Homo sapiens, UniProt P23219). Nature of the test: Inhibitory concentration against prostaglandin G/H synthase 1 in human whole blood. In kind it is tissue-based.
The target of test [3] is T1, Prostaglandin G/H synthase 2 (Homo sapiens, UniProt P35354).
T1 sequence (P35354 whole entry): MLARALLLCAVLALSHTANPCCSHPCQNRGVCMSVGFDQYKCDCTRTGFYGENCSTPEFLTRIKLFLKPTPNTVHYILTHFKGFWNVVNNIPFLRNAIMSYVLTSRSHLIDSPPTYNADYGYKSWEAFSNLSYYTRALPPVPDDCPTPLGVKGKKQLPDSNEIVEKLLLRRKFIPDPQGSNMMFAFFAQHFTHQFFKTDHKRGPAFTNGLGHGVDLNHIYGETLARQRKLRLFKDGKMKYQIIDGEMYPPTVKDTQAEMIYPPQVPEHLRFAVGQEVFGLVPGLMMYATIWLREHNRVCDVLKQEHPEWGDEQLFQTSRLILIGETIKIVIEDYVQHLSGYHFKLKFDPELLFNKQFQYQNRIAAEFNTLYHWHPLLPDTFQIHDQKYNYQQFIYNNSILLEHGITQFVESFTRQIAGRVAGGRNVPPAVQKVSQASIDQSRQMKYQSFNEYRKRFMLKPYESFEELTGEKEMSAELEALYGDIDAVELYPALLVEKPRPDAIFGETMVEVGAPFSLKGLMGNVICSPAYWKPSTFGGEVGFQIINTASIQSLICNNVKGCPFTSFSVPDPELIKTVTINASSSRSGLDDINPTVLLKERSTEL
Nature of the test: Inhibitory concentration against prostaglandin G/H synthase 2 in human whole blood.

In test [4] the test system is Rattus norvegicus. Nature of the test: Concentration of compound 1 in brain of Sprague-Dawley rats upon 10 mg/kg iv dose after 3 hours. Also noted: dose 10 mg/kg. In kind it is functional, organism-based.
The subject of test [5] is Rattus norvegicus. Nature of the test: Concentration of compound 1 in plasma of Sprague-Dawley rats upon 10 mg/kg iv dose after 3 hours. In kind it is functional, organism-based. The arrangement: dose 10 mg/kg.
Test [6] concerns Rattus norvegicus. Nature of the test: Concentration of compound 16 in plasma of Sprague-Dawley rats upon 10 mg/kg bolus+ 5 mg/Kg/h infusion of compound after 24 hours. In kind it is functional, organism-based.
In test [7] the test system is Rattus norvegicus. Nature of the test: Concentration of compound 16 in plasma of Sprague-Dawley rats upon 10 mg/kg bolus+ 5 mg/Kg/h infusion of compound after 6 hours. It counts as functional, organism-based.
Test [8] relates to Rattus norvegicus. Briefly: Concentration of compound 16 in brain of Sprague-Dawley rats upon 10 mg/kg bolus+ 5 mg/Kg/h infusion of compound after 24 hours. In kind it is functional, organism-based.
The test system of test [9] is Rattus norvegicus. Nature of the test: Ratio of concentration of compound 16 in brain to that of plasma of Sprague-Dawley rats upon 5 mg/kg bolus+ 3 mg/Kg/h infusion of compound after 24 hours. It counts as functional.
Test [10] relates to Rattus norvegicus. Briefly: Ratio of concentration of compound 16 in brain to that of plasma of Sprague-Dawley rats upon 10 mg/kg bolus+ 5 mg/Kg/h infusion of compound after 24 hours. In kind it is functional.
Test [11] has as its system Rattus norvegicus. Briefly: Concentration of compound 16 in plasma of Sprague-Dawley rats upon 5 mg/kg bolus+ 3 mg/Kg/h infusion of compound after 6 hours. It counts as functional, organism-based.
Test [12] deals with Rattus norvegicus. Nature of the test: Concentration of compound 16 in brain of Sprague-Dawley rats upon 5 mg/kg bolus+ 3 mg/Kg/h infusion of compound after 24 hours. It counts as functional, organism-based.
Test [13] has as its system Rattus norvegicus. Briefly: Concentration of compound 16 in plasma of Sprague-Dawley rats upon 5 mg/kg bolus+ 3 mg/Kg/h infusion of compound after 24 hours. It counts as functional, organism-based.

Prostaglandin G/H synthase 1, sequence (P23219 whole entry): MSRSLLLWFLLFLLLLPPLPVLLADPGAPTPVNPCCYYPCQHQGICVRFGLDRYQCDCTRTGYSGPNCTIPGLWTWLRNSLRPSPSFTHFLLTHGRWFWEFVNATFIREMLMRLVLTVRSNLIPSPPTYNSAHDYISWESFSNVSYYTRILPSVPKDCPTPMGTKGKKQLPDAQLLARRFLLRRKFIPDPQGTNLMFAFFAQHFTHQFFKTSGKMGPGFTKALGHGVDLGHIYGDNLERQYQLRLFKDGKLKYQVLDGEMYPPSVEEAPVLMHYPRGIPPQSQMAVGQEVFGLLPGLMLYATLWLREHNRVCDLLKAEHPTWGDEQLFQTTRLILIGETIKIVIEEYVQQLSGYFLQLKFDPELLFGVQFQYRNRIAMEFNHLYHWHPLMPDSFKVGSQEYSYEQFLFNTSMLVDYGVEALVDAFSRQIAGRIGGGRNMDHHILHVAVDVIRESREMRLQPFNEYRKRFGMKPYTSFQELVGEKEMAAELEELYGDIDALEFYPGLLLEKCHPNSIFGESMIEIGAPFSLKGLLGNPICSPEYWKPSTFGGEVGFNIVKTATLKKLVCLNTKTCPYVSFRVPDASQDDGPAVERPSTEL

On to `CCOC(=O)[C@H](N)COC(=O)/C(=C(\COC(C)=O)c1ccc(S(C)(=O)=O)cc1)c1ccc(F)c(F)c1`, for which the Concentration in the test with Rattus norvegicus [1] came to 1.4 µM.
In general, IC50 refers to the point on the concentration scale where inhibition reaches its midpoint. Consider `CS(=O)(=O)c1ccc(C2=C(c3cccc(F)c3)C(=O)OC2)cc1`, for which the IC50 in test [2] came to 65 µM; in test [3] it was 1.3 µM.
With `CCOC(=O)/C(=C(\COC(=O)[C@@H](N)CCCCN)c1ccc(S(C)(=O)=O)cc1)c1ccc(F)c(F)c1`, in the test on Rattus norvegicus [1], the Concentration is 0.4 µM.
For `CC(=O)OC/C(=C(\C(=O)OCC[N+](C)(C)C)c1ccc(F)c(F)c1)c1ccc(S(C)(=O)=O)cc1`, the Concentration in the test with Rattus norvegicus [1] was 0.9 µM; in the test with Rattus norvegicus [4], 0.7 µM; in the test with Rattus norvegicus [5] it was 1.4 µM.
Take `CC(=O)OC/C(=C(\C(=O)OCC[N+](C)(C)C)c1cccc(F)c1)c1ccc(S(C)(=O)=O)cc1.[Br-]`: the Concentration with Rattus norvegicus [6] was 20 µM; with Rattus norvegicus [7], 16 µM; with Rattus norvegicus [8], 11 µM; in the test with Rattus norvegicus [11] it was 6 µM; in the test on Rattus norvegicus [12] it was 5.5 µM; in the test with Rattus norvegicus [13], 9.2 µM. Also, the Ratio with Rattus norvegicus [9] was 59%; with Rattus norvegicus [10] it was 55%.
